Common to all, as to test: biochemical
Holding throughout (design): radiometric methyltransferase selectivity assay with tritiated SAM, per cent activity
Holding throughout (conditions): read-out: % of control remaining

One test has as its target DNMT3B/3L (Homo sapiens, UniProt Q9UBC3).
Another test has as its target T1, MLL1 (Homo sapiens, UniProt Q03164).
T1 construct: gene KMT2A
The procedure, abridged: (§1)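 Radiometric methyltransferase assays with ³H-SAM and substrate near apparent Km, compound tested at 1 and 10 μM. Methyl incorporation into biotinylated substrate read by scintillation proximity after guanidine quench; no-compound = 100%, no-enzyme = 0% activity.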

The next test has as its target T2, NSD3 (Homo sapiens, UniProt Q9BZ95).
T2 sequence (Q9BZ95 1-1437): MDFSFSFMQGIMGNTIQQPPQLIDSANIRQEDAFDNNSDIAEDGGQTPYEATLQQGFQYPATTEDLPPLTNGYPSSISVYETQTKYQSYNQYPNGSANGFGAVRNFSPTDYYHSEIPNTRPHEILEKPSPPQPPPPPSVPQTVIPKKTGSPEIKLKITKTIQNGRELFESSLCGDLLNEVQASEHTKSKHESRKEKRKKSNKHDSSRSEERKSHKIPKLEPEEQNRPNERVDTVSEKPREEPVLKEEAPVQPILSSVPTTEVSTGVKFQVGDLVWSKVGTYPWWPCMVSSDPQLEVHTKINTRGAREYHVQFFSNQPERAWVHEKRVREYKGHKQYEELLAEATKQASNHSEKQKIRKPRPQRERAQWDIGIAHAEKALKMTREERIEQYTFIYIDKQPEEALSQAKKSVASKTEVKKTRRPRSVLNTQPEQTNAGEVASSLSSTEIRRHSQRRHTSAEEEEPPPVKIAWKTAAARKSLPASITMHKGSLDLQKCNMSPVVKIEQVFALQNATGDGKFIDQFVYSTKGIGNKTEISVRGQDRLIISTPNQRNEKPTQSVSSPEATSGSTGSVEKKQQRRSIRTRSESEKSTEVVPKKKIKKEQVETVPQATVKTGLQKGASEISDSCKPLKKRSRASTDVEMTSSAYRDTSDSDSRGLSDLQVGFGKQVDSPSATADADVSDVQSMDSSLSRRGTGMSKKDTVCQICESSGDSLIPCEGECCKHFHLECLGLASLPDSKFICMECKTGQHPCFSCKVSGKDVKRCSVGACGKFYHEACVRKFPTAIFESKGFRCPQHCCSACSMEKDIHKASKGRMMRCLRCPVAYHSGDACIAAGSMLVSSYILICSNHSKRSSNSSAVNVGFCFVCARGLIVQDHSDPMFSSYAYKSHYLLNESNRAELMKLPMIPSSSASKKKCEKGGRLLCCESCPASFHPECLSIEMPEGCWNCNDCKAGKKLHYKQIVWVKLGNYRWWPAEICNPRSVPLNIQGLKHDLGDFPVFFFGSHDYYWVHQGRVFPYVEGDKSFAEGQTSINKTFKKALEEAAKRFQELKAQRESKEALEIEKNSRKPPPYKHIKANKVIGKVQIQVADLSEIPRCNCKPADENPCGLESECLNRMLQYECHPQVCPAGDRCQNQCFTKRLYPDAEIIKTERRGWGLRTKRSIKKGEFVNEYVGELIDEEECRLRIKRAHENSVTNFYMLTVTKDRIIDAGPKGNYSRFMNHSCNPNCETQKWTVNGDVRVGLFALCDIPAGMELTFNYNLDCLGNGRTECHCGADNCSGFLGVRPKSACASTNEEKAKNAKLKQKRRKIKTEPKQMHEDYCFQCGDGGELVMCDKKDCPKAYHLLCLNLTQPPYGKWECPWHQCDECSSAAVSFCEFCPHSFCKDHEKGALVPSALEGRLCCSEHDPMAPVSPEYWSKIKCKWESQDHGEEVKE
The method, boiled down:
as §1

In the next test the target is SETD2 (Homo sapiens, UniProt Q9BYW2). The procedure, abridged: as §1
In a further test the target is SETDB1 (Homo sapiens, UniProt Q15047). The procedure, abridged:
as §1

The target in another test is PRMT1 (Homo sapiens, UniProt Q99873). The procedure, abridged: as §1
PRMT1, sequence (Q99873 whole entry): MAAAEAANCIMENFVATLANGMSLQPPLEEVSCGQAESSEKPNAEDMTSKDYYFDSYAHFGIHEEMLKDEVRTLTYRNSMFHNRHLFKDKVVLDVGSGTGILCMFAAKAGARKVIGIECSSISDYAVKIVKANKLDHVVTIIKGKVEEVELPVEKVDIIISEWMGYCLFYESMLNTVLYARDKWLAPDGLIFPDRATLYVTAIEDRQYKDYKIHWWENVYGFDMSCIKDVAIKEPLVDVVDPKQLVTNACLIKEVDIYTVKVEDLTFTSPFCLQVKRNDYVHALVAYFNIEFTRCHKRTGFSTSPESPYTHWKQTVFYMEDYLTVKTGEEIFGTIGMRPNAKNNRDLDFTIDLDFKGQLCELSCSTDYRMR

T1 sequence (Q03164 whole entry): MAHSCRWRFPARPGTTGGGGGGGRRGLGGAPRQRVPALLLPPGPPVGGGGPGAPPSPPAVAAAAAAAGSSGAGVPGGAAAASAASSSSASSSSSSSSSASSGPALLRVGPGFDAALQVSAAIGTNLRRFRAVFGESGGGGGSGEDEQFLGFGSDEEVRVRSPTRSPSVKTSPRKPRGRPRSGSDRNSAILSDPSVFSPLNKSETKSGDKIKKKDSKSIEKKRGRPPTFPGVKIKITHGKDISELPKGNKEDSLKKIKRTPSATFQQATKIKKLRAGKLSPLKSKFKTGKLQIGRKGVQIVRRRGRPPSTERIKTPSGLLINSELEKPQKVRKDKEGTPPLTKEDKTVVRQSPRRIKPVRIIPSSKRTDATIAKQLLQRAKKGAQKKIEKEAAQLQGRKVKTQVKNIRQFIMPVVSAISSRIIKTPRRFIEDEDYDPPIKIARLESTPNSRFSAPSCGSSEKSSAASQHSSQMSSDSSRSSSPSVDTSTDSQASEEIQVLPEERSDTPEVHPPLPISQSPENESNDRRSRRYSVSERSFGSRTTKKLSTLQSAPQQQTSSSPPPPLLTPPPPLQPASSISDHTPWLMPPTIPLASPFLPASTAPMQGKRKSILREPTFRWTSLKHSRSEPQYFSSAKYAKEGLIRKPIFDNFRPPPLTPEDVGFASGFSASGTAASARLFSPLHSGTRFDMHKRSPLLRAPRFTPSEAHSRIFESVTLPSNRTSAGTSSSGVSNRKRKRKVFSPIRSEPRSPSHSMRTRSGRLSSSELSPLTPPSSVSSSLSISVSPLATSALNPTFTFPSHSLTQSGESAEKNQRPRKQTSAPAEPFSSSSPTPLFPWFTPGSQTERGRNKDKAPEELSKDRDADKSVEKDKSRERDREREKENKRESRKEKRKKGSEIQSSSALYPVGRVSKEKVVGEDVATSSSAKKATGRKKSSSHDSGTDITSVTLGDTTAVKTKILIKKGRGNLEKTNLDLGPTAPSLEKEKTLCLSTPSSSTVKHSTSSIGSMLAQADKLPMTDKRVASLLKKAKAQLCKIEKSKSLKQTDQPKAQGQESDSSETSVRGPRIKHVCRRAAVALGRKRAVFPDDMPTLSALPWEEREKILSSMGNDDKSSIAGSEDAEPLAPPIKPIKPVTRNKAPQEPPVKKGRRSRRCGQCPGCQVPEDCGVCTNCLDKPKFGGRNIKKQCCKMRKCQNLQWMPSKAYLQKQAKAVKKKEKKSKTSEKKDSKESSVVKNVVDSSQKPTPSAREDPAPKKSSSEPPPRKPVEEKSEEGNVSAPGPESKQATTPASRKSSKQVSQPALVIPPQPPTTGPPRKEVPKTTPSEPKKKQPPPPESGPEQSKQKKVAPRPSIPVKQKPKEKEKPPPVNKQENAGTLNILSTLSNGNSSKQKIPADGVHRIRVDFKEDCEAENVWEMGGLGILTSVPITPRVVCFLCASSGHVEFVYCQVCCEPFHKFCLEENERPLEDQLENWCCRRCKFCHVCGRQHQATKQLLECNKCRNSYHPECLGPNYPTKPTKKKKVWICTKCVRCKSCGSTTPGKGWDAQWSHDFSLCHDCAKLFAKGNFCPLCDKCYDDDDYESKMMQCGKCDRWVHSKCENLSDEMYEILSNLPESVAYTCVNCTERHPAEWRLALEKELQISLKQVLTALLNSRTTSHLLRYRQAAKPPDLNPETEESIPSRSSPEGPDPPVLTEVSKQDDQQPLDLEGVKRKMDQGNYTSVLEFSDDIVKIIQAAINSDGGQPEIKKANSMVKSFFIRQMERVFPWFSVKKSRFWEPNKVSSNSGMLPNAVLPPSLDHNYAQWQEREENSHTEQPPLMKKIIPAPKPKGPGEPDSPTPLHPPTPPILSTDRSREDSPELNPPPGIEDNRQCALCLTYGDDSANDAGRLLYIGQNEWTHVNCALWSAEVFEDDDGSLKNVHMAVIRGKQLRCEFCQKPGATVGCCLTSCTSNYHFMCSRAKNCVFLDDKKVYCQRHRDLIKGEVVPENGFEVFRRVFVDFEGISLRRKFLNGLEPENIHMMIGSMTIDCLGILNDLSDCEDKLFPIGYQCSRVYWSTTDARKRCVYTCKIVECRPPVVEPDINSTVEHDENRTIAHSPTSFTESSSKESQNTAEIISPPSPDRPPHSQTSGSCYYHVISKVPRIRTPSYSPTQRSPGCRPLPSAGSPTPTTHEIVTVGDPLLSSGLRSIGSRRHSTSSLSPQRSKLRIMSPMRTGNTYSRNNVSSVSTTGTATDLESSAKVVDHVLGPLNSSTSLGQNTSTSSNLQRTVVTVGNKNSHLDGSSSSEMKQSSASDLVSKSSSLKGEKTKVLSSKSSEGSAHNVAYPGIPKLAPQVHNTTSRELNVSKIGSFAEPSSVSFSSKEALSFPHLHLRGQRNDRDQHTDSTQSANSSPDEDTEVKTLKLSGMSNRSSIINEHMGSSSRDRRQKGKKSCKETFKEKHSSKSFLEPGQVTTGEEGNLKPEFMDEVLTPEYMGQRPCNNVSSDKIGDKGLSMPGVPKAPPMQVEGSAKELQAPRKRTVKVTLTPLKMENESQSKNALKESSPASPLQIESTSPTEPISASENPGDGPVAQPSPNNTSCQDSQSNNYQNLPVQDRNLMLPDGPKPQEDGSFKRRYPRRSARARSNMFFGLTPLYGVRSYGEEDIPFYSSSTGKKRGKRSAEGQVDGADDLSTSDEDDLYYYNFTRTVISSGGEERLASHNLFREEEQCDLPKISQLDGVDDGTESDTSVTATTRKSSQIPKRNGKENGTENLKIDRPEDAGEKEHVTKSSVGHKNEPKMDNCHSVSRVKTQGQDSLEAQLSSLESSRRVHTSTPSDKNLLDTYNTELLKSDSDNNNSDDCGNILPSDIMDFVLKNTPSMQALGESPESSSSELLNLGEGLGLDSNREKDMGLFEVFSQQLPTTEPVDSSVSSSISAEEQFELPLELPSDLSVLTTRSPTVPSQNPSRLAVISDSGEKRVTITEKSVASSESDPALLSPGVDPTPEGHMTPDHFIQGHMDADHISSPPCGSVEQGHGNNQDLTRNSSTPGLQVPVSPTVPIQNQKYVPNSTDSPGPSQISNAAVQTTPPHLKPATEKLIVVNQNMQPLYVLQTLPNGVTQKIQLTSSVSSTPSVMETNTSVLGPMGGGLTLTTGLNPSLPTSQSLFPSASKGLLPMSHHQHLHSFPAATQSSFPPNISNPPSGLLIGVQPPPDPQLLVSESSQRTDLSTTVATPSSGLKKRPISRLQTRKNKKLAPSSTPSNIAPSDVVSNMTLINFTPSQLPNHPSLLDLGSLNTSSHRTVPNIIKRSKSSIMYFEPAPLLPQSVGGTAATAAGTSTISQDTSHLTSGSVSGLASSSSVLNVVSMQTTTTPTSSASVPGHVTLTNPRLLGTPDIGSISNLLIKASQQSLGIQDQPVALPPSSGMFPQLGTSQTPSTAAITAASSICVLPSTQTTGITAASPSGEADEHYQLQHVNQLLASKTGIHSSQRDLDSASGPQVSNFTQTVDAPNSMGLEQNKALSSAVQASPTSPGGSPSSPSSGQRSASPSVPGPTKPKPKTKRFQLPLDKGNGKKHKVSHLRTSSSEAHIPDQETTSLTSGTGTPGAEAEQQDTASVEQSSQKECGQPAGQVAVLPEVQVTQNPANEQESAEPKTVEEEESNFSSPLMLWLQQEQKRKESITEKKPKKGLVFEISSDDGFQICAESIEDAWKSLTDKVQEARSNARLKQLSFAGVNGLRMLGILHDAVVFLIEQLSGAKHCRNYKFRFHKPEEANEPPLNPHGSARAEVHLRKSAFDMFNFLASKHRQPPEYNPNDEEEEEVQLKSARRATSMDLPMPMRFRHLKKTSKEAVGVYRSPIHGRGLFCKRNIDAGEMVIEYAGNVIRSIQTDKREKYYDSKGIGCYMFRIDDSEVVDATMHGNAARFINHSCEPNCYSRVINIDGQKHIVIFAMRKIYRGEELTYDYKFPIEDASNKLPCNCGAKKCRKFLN

Regarding `CC1(C)O[C@@H]2[C@H](O1)[C@@H](CSCCCCNCc1cccc(-c3ccc(Cl)cc3)c1)O[C@H]2n1cnc2c(N)ncnc21` [SGC8158N], the remaining activity at 1 µM is 104% on DNMT3B/3L; 101% on MLL1; 100% on NSD3; 103% on SETD2; 99% on SETDB1; 94% on PRMT1. Also, the remaining activity at 10 µM on DNMT3B/3L stood at 103%; on MLL1 it was 98%; at NSD3, 97%; at SETD2 it was 97%; at SETDB1 it was 91%; on PRMT1, 91%.
In the case of `Nc1ncnc2c1ncn2[C@@H]1O[C@H](CSCCCCNCc2cccc(-c3ccc(Cl)cc3)c2)[C@@H](O)[C@H]1O` [SGC8158], the remaining activity at 1 µM at DNMT3B/3L worked out at 100%; on MLL1, 106%; on NSD3, 97%; at SETD2, 95%; at SETDB1 it was 103%; on PRMT1, 104%. Besides, the remaining activity at 10 µM on DNMT3B/3L worked out at 101%; at MLL1, 99%; on NSD3 it was 95%; on SETD2, 86%; on SETDB1 it was 99%; on PRMT1 it was 67%.

These data come from article PMC7224190, “Pharmacological inhibition of PRMT7 links arginine monomethylation to the cellular stress response” (Nature Communications, 2020).
